From patent US7064124B2, “NF-κB inhibitor containing substituted benzoic acid derivative as active ingredient” (Daiichi Suntory Pharma Co., Ltd., priority 2001, dated 2006)

COC1=C(OC)C(=O)C(Cc2ccc(OCc3cccnc3)c(C(=O)Nc3ccc(C(F)(F)F)cc3)c2)=C(C)C1=O [Example 172, N-[5-(5,6-Dimethoxy-3-methyl-1,4-benzoquinon-2-yl)methyl-2-(3-pyridylmethyloxy)benzoyl]-4-trifluoromethylaniline]
melting point: 173 to 176 °C

CC(=O)Oc1ccc(CC2=C(C)C(=O)C(C)=C(C)C2=O)cc1C(=O)O [Example 233, 5-(3,5,6-Trimethyl-1,4-benzoquinon-2-yl)methyl-2-acetoxybenzoic acid]
melting point: 157 to 159.5 °C

COC1=C(OC)C(=O)C(Cc2ccc(OC(C)=O)c(C(=O)Nc3ncccc3C(=O)O)c2)=C(C)C1=O [Example 194, N-(3-Hydroxycarbonylpyridin-2-yl)-5-(5,6-dimethoxy-3-methyl-1,4-benzoquinon-2-yl)methyl-2-acetoxybenzamide]
melting point: 148 to 151 °C

COC1=C(OC)C(=O)C(Cc2ccc(O)c(C(=O)NC3CC3)c2)=C(C)C1=O [Example 160, N-Cyclopropyl-5-(5,6-dimethoxy-3-methyl-1,4-benzoquinon-2-yl)methyl-2-hydroxybenzamide]
melting point: 111 to 112 °C

COC1=C(OC)C(=O)C(Cc2ccc(OC(C)=O)c(C(=O)Nc3cccnc3OC)c2)=C(C)C1=O [Example 215, N-(2-Methoxypyridin-3-yl)-5-(5,6-dimethoxy-3-methyl-1,4-benzoquinon-2-yl)methyl-2-acetoxybenzamide]
melting point: 111 to 112 °C

COC1=C(OC)C(=O)C(Cc2ccc(C(=O)Nc3cccnc3)c(O)c2)=C(C)C1=O [Example 139, N-(Pyridin-3-yl)-4-(5,6-dimethoxy-3-methyl-1,4-benzoquinon-2-yl)methyl-2-hydroxybenzamide]
melting point: 138.1 to 139.7 °C

COC1=C(OC)C(=O)C(Cc2cccc(C(=O)Nc3ccc(C(F)(F)F)cc3)c2OC(C)=O)=C(C)C1=O [Example 165, N-[3-(5,6-Dimethoxy-3-methyl-1,4-benzoquinon-2-yl)methyl-2-acetoxybenzoyl]-4-trifluoromethylaniline]
melting point: 163 to 166 °C

COC1=C(OC)C(=O)C(Cc2ccc(O)c(C(=O)Nc3ncccc3C(=O)O)c2)=C(C)C1=O [Example 195, N-(3-Hydroxycarbonylpyridin-2-yl)-5-(5,6-dimethoxy-3-methyl-1,4-benzoquinon-2-yl)methyl-2-hydroxybenzamide]
melting point: 134 to 136.5 °C

COC1=C(OC)C(=O)C(Cc2ccc(C(=O)Nc3cccnc3)c(OC(C)=O)c2)=C(C)C1=O [Example 138, N-(Pyridin-3-yl)-4-(5,6-dimethoxy-3-methyl-1,4-benzoquinon-2-yl)methyl-2-acetoxybenzamide]
melting point: 158.2 to 160 °C

CCOC(=O)c1ccc(NC(=O)c2cc(CC3=C(C)C(=O)C(OC)=C(OC)C3=O)ccc2OCc2cccnc2)cc1 [Example 167, Ethyl N-[5-(5,6-dimethoxy-3-methyl-1,4-benzoquinon-2-yl)methyl-2-(3-pyridylmethyloxy)benzoyl]-4-aminobenzoate]
melting point: 83 to 85.5 °C

CC1=C(C)C(=O)C(Cc2ccc(O)c(C(=O)Nc3ccncc3)c2)=C(C)C1=O [Example 238, N-(Pyridin-4-yl)-5-(3,5,6-trimethyl-1,4-benzoquinon-2-yl)methyl-2-hydroxybenzamide]
melting point: 245 to 247 °C

COC1=C(OC)C(=O)C(Cc2ccc(O)c(C(=O)Nc3ccc(-n4ccnc4)cc3)c2)=C(C)C1=O [Example 209, N-[5-(5,6-Dimethoxy-3-methyl-1,4-benzoquinon-2-yl)methyl-2-hydroxybenzoyl]-4-(imidazol-1-yl)aniline]
melting point: 119 to 121.5 °C

COC1=C(OC)C(=O)C(Cc2ccc(OC(C)=O)c(C(=O)Nc3cccc([N+](=O)[O-])c3)c2)=C(C)C1=O [Example 143, N-[5-(5,6-Dimethoxy-3-methyl-1,4-benzoquinon-2-yl)methyl-2-acetoxybenzoyl]-3-nitroaniline]
melting point: 152 to 153.5 °C

COC1=C(OC)C(=O)C(Cc2ccc(OC(C)=O)c(C(=O)NC3CC3)c2)=C(C)C1=O [Example 159, N-Cyclopropyl-5-(5,6-dimethoxy-3-methyl-1,4-benzoquinon-2-yl)methyl-2-acetoxybenzamide]
melting point: 95.5 to 98 °C

CC(=O)Oc1ccc(CC2=C(C)C(=O)C(C)=C(C)C2=O)cc1C(=O)Nc1ccc(C(F)(F)F)cc1 [Example 234, N-[5-(3,5,6-Trimethyl-1,4-benzoquinon-2-yl)methyl-2-acetoxybenzoyl]-4-trifluoromethylaniline]
melting point: 180 to 181 °C

COC1=C(OC)C(=O)C(Cc2ccc(OC(C)=O)c(C(=O)Nc3ccccn3)c2)=C(C)C1=O [Example 155, N-(Pyridin-2-yl)-5-(5,6-dimethoxy-3-methyl-1,4-benzoquinon-2-yl)methyl-2-acetoxybenzamide]
melting point: 124 to 126.5 °C

COC1=C(OC)C(=O)C(Cc2ccc(C(=O)Nc3ccncc3)c(O)c2)=C(C)C1=O [Example 140, N-(Pyridin-4-yl)-4-(5,6-dimethoxy-3-methyl-1,4-benzoquinon-2-yl)methyl-2-hydroxybenzamide]
melting point: 181.4 to 183.3 °C

COC1=C(OC)C(=O)C(Cc2ccc(OCc3cccnc3)c(C(=O)Nc3cccnc3)c2)=C(C)C1=O [Example 169, N-(Pyridin-3-yl)-5-(5,6-dimethoxy-3-methyl-1,4-benzoquinon-2-yl)methyl-2-(3-pyridylmethyloxy)benzamide]
melting point: 135 to 137 °C

COC1=C(OC)C(=O)C(Cc2ccc(OC(C)=O)c(C(=O)Nc3ccccc3C(F)(F)F)c2)=C(C)C1=O [Example 145, N-[5-(5,6-Dimethoxy-3-methyl-1,4-benzoquinon-2-yl)methyl-2-acetoxybenzoyl]-2-trifluoromethylaniline]
melting point: 57.5 to 60 °C

COC1=C(OC)C(=O)C(Cc2cccc(C(=O)Nc3ccc(S(=O)(=O)C(F)(F)F)cc3)c2OC(C)=O)=C(C)C1=O [Example 175, N-[3-(5,6-Dimethoxy-3-methyl-1,4-benzoquinon-2-yl)methyl-2-acetoxybenzoyl]-4-(trifluoromethylsulfonyl)aniline]
melting point: 87 to 89 °C

COC1=C(OC)C(=O)C(Cc2ccc(C(=O)Nc3ccc(OC)nc3)c(O)c2)=C(C)C1=O [Example 135, N-(6-Methoxypyridin-3-yl)-4-(5,6-dimethoxy-3-methyl-1,4-benzoquinon-2-yl)methyl-2-hydroxybenzamide]
melting point: 194.3 to 196.5 °C

COC1=C(OC)C(=O)C(Cc2cccc(C(=O)Nc3ccc(N4CCOCC4)cc3)c2O)=C(C)C1=O [Example 179, N-[3-(5,6-Dimethoxy-3-methyl-1,4-benzoquinon-2-yl)methyl-2-hydroxybenzoyl]-4-morpholinoaniline]
melting point: 177.5 to 180.5 °C

COC1=C(OC)C(=O)C(Cc2ccc(O)c(C(=O)Nc3ccc(-c4ccn[nH]4)cc3)c2)=C(C)C1=O [Example 211, N-[5-(5,6-Dimethoxy-3-methyl-1,4-benzoquinon-2-yl)methyl-2-hydroxybenzoyl]-4-(1H-pyrazol-3-yl)aniline]
melting point: 182 to 185.5 °C

COC1=C(OC)C(=O)C(Cc2ccc(O)c(C(=O)Nc3ccccc3[N+](=O)[O-])c2)=C(C)C1=O [Example 154, N-[5-(5,6-Dimethoxy-3-methyl-1,4-benzoquinon-2-yl)methyl-2-hydroxybenzoyl]-2-nitroaniline]
melting point: 155 to 156 °C

COC1=C(OC)C(=O)C(Cc2ccc(O)c(C(=O)NC3CCCCC3)c2)=C(C)C1=O [Example 162, N-Cyclohexyl-5-(5,6-dimethoxy-3-methyl-1,4-benzoquinon-2-yl)methyl-2-hydroxybenzamide]
melting point: 107 to 109 °C

COC1=C(OC)C(=O)C(Cc2ccc(C(=O)Nc3ccc(S(=O)(=O)C(F)(F)F)cc3)c(O)c2)=C(C)C1=O [Example 137, N-[4-(5,6-Dimethoxy-3-methyl-1,4-benzoquinon-2-yl)methyl-2-hydroxybenzoyl]-4-(trifluoromethylsulfonyl)aniline]
melting point: 186.9 to 187.5 °C

COC1=C(OC)C(=O)C(Cc2ccc(OC(C)=O)c(C(=O)Nc3ccccc3[N+](=O)[O-])c2)=C(C)C1=O [Example 153, N-[5-(5,6-Dimethoxy-3-methyl-1,4-benzoquinon-2-yl)methyl-2-acetoxybenzoyl]-2-nitroaniline]
melting point: 97.5 to 100 °C

COC1=C(OC)C(=O)C(Cc2ccc(O)c(C(=O)Nc3cccc(C(F)(F)F)c3)c2)=C(C)C1=O [Example 152, N-[5-(5,6-Dimethoxy-3-methyl-1,4-benzoquinon-2-yl)methyl-2-hydroxybenzoyl]-3-trifluoromethylaniline]
melting point: 127.5 to 130 °C

COC1=C(OC)C(=O)C(Cc2ccc(OC(C)=O)c(C(=O)Nc3cc(OC)ccc3OC)c2)=C(C)C1=O [Example 219, N-[5-(5,6-Dimethoxy-3-methyl-1,4-benzoquinon-2-yl)methyl-2-acetoxybenzoyl]-2,5-dimethoxyaniline]
melting point: 118.5 to 120 °C

COC1=C(OC)C(=O)C(Cc2ccc(OC(C)=O)c(C(=O)Nc3ccc(C(=O)O)cc3)c2)=C(C)C1=O [Example 189, N-[5-(5,6-Dimethoxy-3-methyl-1,4-benzoquinon-2-yl)methyl-2-acetoxybenzoyl]-4-aminobenzoic acid]
melting point: 199 to 201.5 °C

COC1=C(OC)C(=O)C(Cc2ccc(O)c(C(=O)Nc3c(Cl)cc(OC(F)(F)F)cc3Cl)c2)=C(C)C1=O [Example 192, N-[5-(5,6-Dimethoxy-3-methyl-1,4-benzoquinon-2-yl)methyl-2-hydroxybenzoyl]-2,6-dichloro-4-trifluoromethoxyaniline]
melting point: 138 to 141 °C

COC1=C(OC)C(=O)C(Cc2ccc(OC(C)=O)c(C(=O)NC3CCCCC3)c2)=C(C)C1=O [Example 161, N-Cyclohexyl-5-(5,6-dimethoxy-3-methyl-1,4-benzoquinon-2-yl)methyl-2-acetoxybenzamide]
melting point: 137.5 to 140 °C

COC1=C(OC)C(=O)C(Cc2ccc(OC(C)=O)c(C(=O)Nc3ccnc(OC)c3)c2)=C(C)C1=O [Example 230, N-(2-Methoxypyridin-4-yl)-5-(5,6-dimethoxy-3-methyl-1,4-benzoquinon-2-yl)methyl-2-acetoxybenzamide]
melting point: 138 to 140.5 °C

CC(=O)Oc1ccc(CC2=C(C)C(=O)C(C)=C(C)C2=O)cc1C(=O)Nc1cccnc1Cl [Example 236, N-(2-Chloropyridin-3-yl)-5-(3,5,6-trimethyl-1,4-benzoquinon-2-yl)methyl-2-acetoxybenzamide]
melting point: 130 to 131 °C
